How the values were obtained:
Assay in all cases: relative viability (nuclei count vs DMSO), 5 days (fraction); higher = more cells survive
Ruxolitinib + Olaparib = compound: N#CC[C@H](C1CCCC1)n1cc(-c2ncnc3[nH]ccc23)cn1 [Ruxolitinib] + O=C(c1cc(Cc2n[nH]c(=O)c3ccccc23)ccc1F)N1CCN(C(=O)C2CC2)CC1 [Olaparib] (partner 8 µM)
Procedure, shortened: (§1)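 Lung cancer cell lines in 1536-well plates got either a single drug or a fixed anchor-drug dose together with five library-drug doses (not always all listed) in √10 steps, by pin tool, on the day after seeding. Nuclei were counted after 5 days, and relative viability is the treated-to-vehicle ratio of nuclei counts. Values are medians of duplicate plates.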

Vismodegib + OSI-027 = compound: CS(=O)(=O)c1ccc(C(=O)Nc2ccc(Cl)c(-c3ccccn3)c2)c(Cl)c1 [Vismodegib] + COc1cccc2cc(-c3nc([C@H]4CC[C@H](C(=O)O)CC4)n4ncnc(N)c34)[nH]c12 [OSI-027] (partner 0.5 µM)
Procedure, shortened: as §1

Ruxolitinib + Pictilisib = compound: N#CC[C@H](C1CCCC1)n1cc(-c2ncnc3[nH]ccc23)cn1 [Ruxolitinib] + CS(=O)(=O)N1CCN(Cc2cc3nc(-c4cccc5[nH]ncc45)nc(N4CCOCC4)c3s2)CC1 [Pictilisib] (partner 1 µM)
Procedure, shortened: as §1

Vismodegib + Olaparib = compound: CS(=O)(=O)c1ccc(C(=O)Nc2ccc(Cl)c(-c3ccccn3)c2)c(Cl)c1 [Vismodegib] + O=C(c1cc(Cc2n[nH]c(=O)c3ccccc23)ccc1F)N1CCN(C(=O)C2CC2)CC1 [Olaparib] (partner 8 µM)
Procedure, shortened: as §1

Cell Line	relative viability (Ruxolitinib + Olaparib; first compound 0.08 µM)	relative viability (Ruxolitinib + Olaparib; first compound 0.253 µM)	relative viability (Ruxolitinib + Olaparib; first compound 0.8 µM)	relative viability (Ruxolitinib + Olaparib; first compound 2.53 µM)	relative viability (Ruxolitinib + Olaparib; first compound 8 µM)	relative viability (Vismodegib + OSI-027; first compound 0.08 µM)	relative viability (Vismodegib + OSI-027; first compound 0.253 µM)	relative viability (Vismodegib + OSI-027; first compound 0.8 µM)	relative viability (Vismodegib + OSI-027; first compound 2.53 µM)	relative viability (Vismodegib + OSI-027; first compound 8 µM)	relative viability (Ruxolitinib + Pictilisib; first compound 0.253 µM)	relative viability (Ruxolitinib + Pictilisib; first compound 0.8 µM)	relative viability (Ruxolitinib + Pictilisib; first compound 2.53 µM)	relative viability (Ruxolitinib + Pictilisib; first compound 8 µM)	relative viability (Vismodegib + Olaparib; first compound 0.08 µM)	relative viability (Vismodegib + Olaparib; first compound 0.253 µM)	relative viability (Vismodegib + Olaparib; first compound 0.8 µM)	relative viability (Vismodegib + Olaparib; first compound 2.53 µM)	relative viability (Vismodegib + Olaparib; first compound 8 µM)	relative viability (Ruxolitinib + Pictilisib; first compound 0.08 µM)
NCI-H650	0.379	0.436	0.392	0.384	0.314	0.604	0.513	0.454	0.511	0.491	0.881	1.21	0.699	0.649	0.385	0.385	0.396	0.316	0.387	–
NCI-H727	0.715	0.8	0.603	0.826	0.645	0.57	0.451	0.446	0.528	0.655	0.384	0.6	0.309	0.725	0.66	0.683	0.76	0.724	0.749	0.427
ABC-1	–	0.886	0.892	0.505	1.02	0.638	0.392	0.581	0.403	0.52	0.742	0.867	0.705	0.738	0.76	0.788	0.725	1.01	1.09	0.875
NCI-H1793	0.769	0.8	1.07	0.89	0.706	–	0.246	0.248	0.242	0.23	0.409	0.25	0.38	0.282	–	0.907	1.11	0.917	0.884	0.311
NCI-H23	0.371	0.369	0.311	0.242	0.17	0.745	0.742	0.599	0.464	0.438	0.474	0.603	0.439	0.415	0.321	0.277	0.26	0.296	0.409	0.519
SK-LU-1	0.428	0.456	0.572	0.381	0.359	0.414	0.39	0.384	0.401	0.345	0.723	0.538	0.607	0.638	0.343	0.451	0.481	0.469	0.522	0.657
NCI-H1395	0.44	0.419	0.456	0.443	0.476	0.608	0.562	0.596	0.599	0.686	0.553	0.645	0.584	0.601	0.467	0.553	0.494	0.468	0.491	–
NCI-H2170	0.584	0.686	0.592	0.579	0.5	0.658	0.609	0.686	0.723	0.699	0.28	0.418	0.303	0.253	0.624	0.549	0.657	0.581	0.584	0.36
LOU-NH91	0.757	0.895	0.97	0.853	0.813	0.777	0.689	0.673	0.693	0.709	0.493	0.524	0.514	0.56	0.873	0.907	0.936	0.904	0.917	0.477
NCI-H647	0.578	0.687	0.596	0.475	0.31	0.665	0.605	0.671	0.486	0.579	0.358	0.449	0.362	0.514	0.66	0.508	0.669	0.368	0.479	–
LXF-289	0.994	1.1	1.13	1.03	0.924	0.764	0.764	0.795	0.823	0.59	0.797	0.804	0.739	0.498	1.05	1.01	1.11	1.02	0.94	0.785
PC-3 [JPC-3]	–	1.07	1.13	1.03	0.922	0.823	0.756	0.718	0.728	0.673	0.752	0.763	0.678	0.7	1.09	1.11	1.03	1.09	1.17	0.507
NCI-H2009	0.701	0.712	0.684	0.575	0.482	0.688	0.619	0.612	0.608	0.738	0.901	0.987	0.508	0.658	0.679	0.655	0.699	0.662	0.724	0.913
LK-2	0.553	0.701	0.893	0.724	0.52	0.264	0.187	0.181	0.182	0.226	0.595	0.61	0.741	0.673	0.379	0.574	0.956	0.638	0.604	–
NCI-H1993	0.879	0.953	1.42	1.47	1.02	0.572	0.479	0.579	0.562	0.594	0.754	0.855	0.781	0.846	0.9	1.03	1.03	1	0.963	0.809
HCC-15	0.72	0.692	0.721	0.537	0.454	0.753	0.664	0.654	0.738	0.631	0.77	0.789	0.703	0.737	0.652	0.709	0.718	0.737	0.608	0.701
NCI-H322M	0.752	0.852	0.79	0.809	1.05	0.677	0.522	0.486	0.525	0.537	0.604	0.491	0.611	0.665	0.753	0.679	0.695	0.704	0.776	0.4
